According to the supplement of paper PMC10307832:

Columns and labels:
Experiment in all cases: relative viability (nuclei count vs DMSO), 5 days (fraction); higher = more cells survive
Pemetrexed + Lapatinib = compound: Nc1nc2[nH]cc(CCc3ccc(C(=O)N[C@@H](CCC(=O)O)C(=O)O)cc3)c2c(=O)[nH]1 [Pemetrexed] + CS(=O)(=O)CCNCc1ccc(-c2ccc3ncnc(Nc4ccc(OCc5cccc(F)c5)c(Cl)c4)c3c2)o1 [Lapatinib] (partner 2 µM)
In short: (§1)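 The day after seeding in 1536-well plates, lung cancer cell lines were treated by pin tool with a single drug, or with a fixed anchor-drug dose together with five library-drug doses (not always all listed) in √10 steps. After 5 days, a combined fix-and-stain solution (final 0.05% Triton X-100, 1% formaldehyde, 1 ug/ml Hoechst) was added. Nuclei counted on 4× images gave relative viability as treated counts over vehicle counts, reported as the median of duplicate plates.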

Pemetrexed + Vorinostat = compound: Nc1nc2[nH]cc(CCc3ccc(C(=O)N[C@@H](CCC(=O)O)C(=O)O)cc3)c2c(=O)[nH]1 [Pemetrexed] + O=C(CCCCCCC(=O)Nc1ccccc1)NO [Vorinostat] (partner 1 µM)
In short: as §1

Pemetrexed + Pictilisib = compound: Nc1nc2[nH]cc(CCc3ccc(C(=O)N[C@@H](CCC(=O)O)C(=O)O)cc3)c2c(=O)[nH]1 [Pemetrexed] + CS(=O)(=O)N1CCN(Cc2cc3nc(-c4cccc5[nH]ncc45)nc(N4CCOCC4)c3s2)CC1 [Pictilisib] (partner 1 µM)
In short: as §1

Idelalisib + OSI-027 = compound: CC[C@H](Nc1ncnc2[nH]cnc12)c1nc2cccc(F)c2c(=O)n1-c1ccccc1 [Idelalisib] + COc1cccc2cc(-c3nc([C@H]4CC[C@H](C(=O)O)CC4)n4ncnc(N)c34)[nH]c12 [OSI-027] (partner 0.5 µM)
In short: as §1

Row | Cell Line | relative viability (Pemetrexed + Lapatinib; first compound 0.006325 µM) | relative viability (Pemetrexed + Lapatinib; first compound 0.02 µM) | relative viability (Pemetrexed + Lapatinib; first compound 0.06325 µM) | relative viability (Pemetrexed + Lapatinib; first compound 0.2 µM) | relative viability (Pemetrexed + Vorinostat; first compound 0.006325 µM) | relative viability (Pemetrexed + Vorinostat; first compound 0.02 µM) | relative viability (Pemetrexed + Vorinostat; first compound 0.06325 µM) | relative viability (Pemetrexed + Vorinostat; first compound 0.2 µM) | relative viability (Pemetrexed + Pictilisib; first compound 0.006325 µM) | relative viability (Pemetrexed + Pictilisib; first compound 0.02 µM) | relative viability (Pemetrexed + Pictilisib; first compound 0.06325 µM) | relative viability (Pemetrexed + Pictilisib; first compound 0.2 µM) | relative viability (Idelalisib + OSI-027; first compound 0.04 µM) | relative viability (Idelalisib + OSI-027; first compound 0.1265 µM) | relative viability (Idelalisib + OSI-027; first compound 0.4 µM) | relative viability (Idelalisib + OSI-027; first compound 1.265 µM) | relative viability (Idelalisib + OSI-027; first compound 4 µM) | relative viability (Pemetrexed + Lapatinib; first compound 0.002 µM) | relative viability (Pemetrexed + Vorinostat; first compound 0.002 µM) | relative viability (Pemetrexed + Pictilisib; first compound 0.002 µM)
1 | HCC-78 | 0.796 | 0.58 | 0.223 | 0.153 | 0.447 | 0.401 | 0.294 | 0.328 | 0.179 | 0.197 | 0.14 | 0.157 | 0.413 | 0.364 | 0.324 | 0.36 | 0.293 |  |  | 
2 | HCC-366 | 1.02 | 1.16 | 0.993 | 0.381 | 0.341 | 0.393 | 0.386 | 0.269 | 0.133 | 0.151 | 0.127 | 0.14 | 1.09 | 0.889 | 0.598 | 0.788 | 0.677 | 1.01 | 0.208 | 0.193
3 | HCC-827 | 0.196 | 0.169 | 0.191 | 0.166 | 0.912 | 0.959 | 0.515 | 0.426 | 0.973 | 0.929 | 0.95 | 0.664 | 0.928 | 0.738 | 0.759 | 0.698 | 0.659 | 0.178 | 0.764 | 0.74
4 | HOP-62 | 1.07 | 0.898 | 1.14 | 0.982 | 0.581 | 0.721 | 0.626 | 0.547 | 0.666 | 0.817 | 0.655 | 0.655 | 0.775 | 0.879 | 0.719 | 0.888 | 0.767 | 0.885 | 0.387 | 0.351
5 | IA-LM | 0.869 | 1.03 | 0.827 | 0.636 | 0.988 | 1.1 | 0.808 | 0.982 | 0.323 |  | 0.343 | 0.339 |  |  |  |  |  | 0.719 | 0.95 | 0.115
6 | LC-2-ad | 1.01 | 1.01 | 0.27 | 0.179 | 0.671 | 0.663 | 0.319 | 0.27 | 0.306 | 0.428 | 0.211 | 0.123 | 0.944 | 0.781 | 0.651 | 0.82 | 0.715 | 0.747 | 0.657 | 0.402
7 | LCLC-97TM1 | 0.653 | 1.05 | 1.21 | 0.353 | 0.559 | 0.765 | 0.803 | 0.163 | 0.159 | 0.173 | 0.133 | 0.115 | 0.649 | 0.543 | 0.24 | 0.554 | 0.418 | 1.32 | 0.711 | 0.163
8 | LCLC-103H |  |  |  |  | 0.753 | 0.857 | 0.881 | 0.763 | 0.588 | 0.714 | 0.61 | 0.669 | 0.545 | 0.497 | 0.368 | 0.459 | 0.424 |  | 0.663 | 0.639
9 | LK-2 | 0.877 | 1.13 | 0.775 | 0.521 | 0.313 | 0.254 | 0.297 | 0.338 | 0.472 | 0.654 | 0.466 | 0.41 | 0.219 | 0.223 |  | 0.198 | 0.183 | 0.863 | 0.312 | 
